Values joined by “and” are separate entries in the source; they are usually repeats but may differ in a detail not shown here. Equal entries are not always repeated. Where two headings read alike, the source gives them in different places.
What was measured:
[1] = system: Salmonella typhimurium LT2; assay type: cell-based; conditions: 30 minutes
[2] = system: Pseudomonas aeruginosa PAO1p cells; assay: Effect of different EDTA and endolysin concentrations on antibacterial activity of OBPgpLYS and PKOBPgpLYS; assay type: cell-based
Protocol: To determine the influence of EDTA on the antibacterial activity of unmodified and modified endolysins the antibacterial activity of the unmodified OBPgpLYS endolysin (SEQ ID NO: 7) and the PKOBPgpLYS endolysin (SEQ ID NO: 61) was tested on Pseudomonas aeruginosa PAO1p cells ([…] et al. J Clin Microbiol., 41(3):1192-1202 (2003)) using different concentrations of EDTA and endolysins. Exponential growing bacterial cells (OD600 nm of 0.6) were 100-fold diluted to a final density of about 10^6/ml and incubated for 30 minutes at room temperature without shaking with unmodified endolysin OBPgpLYS (SEQ ID NO: 7) and modified endolysin PKOBPgpLYS (SEQ ID NO: 61). […] Thereby, the following different EDTA concentrations were used: 0 mM, 0.05 mM, 0.5 mM and 10 mM. […] After incubation cell suspensions were diluted three times (respectively 10^5-10^4-10^3 cells/ml) and 100 μl of each dilution was plated out on LB-medium. […] All samples were replicated in threefold. Averages+/-standard deviations are represented.

P. aeruginosa Br667 = assay type: cell-based, Pseudomonas aeruginosa
P. putida G1 = assay type: cell-based, Pseudomonas putida
[3] = system: Burkholderia pseudomallei; assay type: cell-based; conditions: 30 minutes
Escherichia coli WK6 = assay type: cell-based
[4] = system: Gram-negative strains of Table 12; assay type: cell-based
[5] = 1.313 μM endolysin + 0.5 mM EDTA
[6] = 0.013 μM endolysin, 0 mM EDTA-Na2, 30 minutes
[7] = 0.013 μM endolysin, 0.5 mM EDTA-Na2, 30 minutes
[8] = 0.131 μM endolysin, 0 mM EDTA-Na2, 30 minutes
[9] = 0.131 μM endolysin, 0.5 mM EDTA-Na2, 30 minutes
[10] = 1.315 μM endolysin, 0.05 mM EDTA-Na2, 30 minutes
[11] = 1.315 μM endolysin, 0.5 mM EDTA-Na2, 30 minutes
[12] = 1.315 μM endolysin, 10 mM EDTA-Na2, 30 minutes
[13] = 1.313 μM endolysin, no EDTA, 30 minutes

Substance	relative inactivation in logarithmic units (log10N0/Ni) [1, 5]	relative inactivation in logarithmic units (log10N0/Ni) ([1]; 1.313 μM endolysin, no EDTA)	relative inactivation in logarithmic units (log10N0/Ni) [2, 6]	relative inactivation in logarithmic units (log10N0/Ni) [2, 7]	relative inactivation in logarithmic units (log10N0/Ni) [2, 8]	relative inactivation in logarithmic units (log10N0/Ni) [2, 9]	relative inactivation in logarithmic units (log10N0/Ni) [2, 10]	relative inactivation in logarithmic units (log10N0/Ni) [2, 11]	relative inactivation in logarithmic units (log10N0/Ni) [2, 12]	relative inactivation in logarithmic units (log10N0/Ni) (P. aeruginosa Br667)	relative inactivation in logarithmic units (log10N0/Ni) (P. aeruginosa Br667; [13])	relative inactivation in logarithmic units (log10N0/Ni) (P. putida G1)	relative inactivation in logarithmic units (log10N0/Ni) (P. putida G1; [13])	relative inactivation in logarithmic units (log10N0/Ni) [3, 5]	relative inactivation in logarithmic units (log10N0/Ni) ([3]; 1.313 μM endolysin, no EDTA)	relative inactivation in logarithmic units (log10N0/Ni) (Escherichia coli WK6)	relative inactivation in logarithmic units (log10N0/Ni) (Escherichia coli WK6; [13])	also measured
OBPgpLYS: SEQ ID NO: 7: unmodified modular endolysin of 328 amino acid residues originating from Pseudomonas putida phage OBP	0.774 +/− 0.052 logarithmic units	0.076 +/− 0.011 logarithmic units	0.956 +/− 0.110 log units	4.626 +/− 0.287 log units	2.158 +/− 0.027 log units	4.599 +/− 0.275 log units	2.762 +/− 0.091 log units	4.357 +/− 1.857 log units	4.888 +/− 0.275 log units	3.144 +/− 0.223 logarithmic units	1.082 +/− 0.083 logarithmic units	4.891 +/− 0.000 logarithmic units	0.141 +/− 0.027 logarithmic units	4.08 +/− 0.301 logarithmic units	0.997 +/− 0.131 logarithmic units	1.179 +/− 0.200 logarithmic units	0.681 +/− 0.032 logarithmic units	
PKOBPgpLYS: SEQ ID NO: 61: OBPgpLYS (SEQ ID NO: 7) with N-terminal peptide stretch KRKKRKKRK (SEQ ID NO: 11)	0.908 +/− 0.037 logarithmic units	0.127 +/− 0.013 logarithmic units	0.992 +/− 0.181 log units	5.204 +/− 0.000 log units	2.529 +/− 0.184 log units	5.671 +/− 0.000 log units	4.145 +/− 0.015 log units	> 5.69 log units and >5.687 log units	> 5.69 log units and >5.687 log units	5.272 +/− 0.573 logarithmic units	1.163 +/− 0.063 logarithmic units	>4.891 logarithmic units	0.904 +/− 0.079 logarithmic units	>4.861 logarithmic units	1.806 +/− 0.287 logarithmic units	1.695 +/− 0.147 logarithmic units	1.434 +/− 0.018 logarithmic units	Δ, difference of activity between OBPgpLYS and PKOBPgpLYS samples ([2]; 0.013 μM endolysin, 0 mM EDTA-Na2): 0.036 log units; Δ, difference of activity between OBPgpLYS and PKOBPgpLYS samples ([2]; 0.013 μM endolysin, 0.5 mM EDTA-Na2): 0.578 log units; Δ, difference of activity between OBPgpLYS and PKOBPgpLYS samples ([2]; 0.131 μM endolysin, 0 mM EDTA-Na2): 0.371 log units; Δ, difference of activity between OBPgpLYS and PKOBPgpLYS samples ([2]; 0.131 μM endolysin, 0.5 mM EDTA-Na2): 1.072 log units; Δ, difference of activity between OBPgpLYS and PKOBPgpLYS samples ([2]; 1.315 μM endolysin, 0 mM EDTA-Na2): 0.5 log units and 0.548 log units; relative inactivation in logarithmic units (log10N0/Ni) ([2]; 1.315 μM endolysin, 0 mM EDTA-Na2, 30 minutes): 3.079 +/− 0.015 log units; Δ, difference of activity between OBPgpLYS and PKOBPgpLYS samples ([2]; 1.315 μM endolysin, 0.05 mM EDTA-Na2): 1.383 log units; Δ, difference of activity between OBPgpLYS and PKOBPgpLYS samples ([2]; 1.315 μM endolysin, 0.5 mM EDTA-Na2): >1.330 log units; Δ, difference of activity between OBPgpLYS and PKOBPgpLYS samples ([2]; 1.315 μM endolysin, 10 mM EDTA-Na2): >0.799 log units; effect compared to unmodified OBPgpLYS (in words) [4]: added effect; interaction with EDTA (in words) [4]: clear synergistic effect

Reference: patent publication US9809808B2, “Antimicrobial agents” (KATHOLIEKE UNIVERSITEIT LEUVEN K.U. LEUVEN R&D, priority 2008, dated 2017)
